Experimental findings from EP4556003A1, “ANTI-OBESITY AND ANTI-DIABETIC ACTIVITY OF BROMINATED DITERPENES FROM RED ALGAE OF THE GENUS LAURENCIA AND APPLICATIONS THEREOF” (priority 2023, dated 2025) are described below.

One experiment concerns 3T3-L1 cells. The experiment in a line: Quantitative PCR of relative mRNA expression in cell culture samples. The experiment is classed as cell-based, Mouse. Particulars: mature adipocytes: differentiated 15 days, then 62.5 µM for 8 more days.
A further experiment relates to abdominal fat. The experiment in a line: Quantitative PCR in fat fraction and stromal vascular fraction of abdominal fat. The experiment is classed as in vivo, C57BL/6 adult male mice. The procedure:
Adipocytes and preadipocytes were harvested using the TRI Reagent®. RNA isolation was carried out according to the manufacturer's instructions. The purified RNA was quantified using the Nanodrop micro-volume spectrophotometer and 500 ng of each sample were used as a template for reverse transcription. cDNA synthesis was performed using the PrimeScriptTM RT reagent Kit (TaKaRa, RR037A) according to manufacturer's instructions. The cDNA produced by the above described procedure was diluted and used as a template for two-step quantitative PCR in a StepOnePlus™ Real-Time PCR System (Applied Biosystems™, 4376600) for a maximum of 40 cycles, as follows: start step 95 °C for 3 min, repeat steps: 95 °C for 15 s and 60 °C for 30 s. Amplification was performed using KAPA SYBR® FAST Universal qPCR kit (Kapa Biosystems, KK4618) according to manufacturer's instructions. Relative quantitative analysis was accomplished calculating fold-changes of gene expression as 2-(ΔΔCt), where ΔCt is (Ct (gene of interest) - Ct (housekeeping gene)). Ppib was used as internal control gene in 3T3L1 cells and in the fat fraction of mice abdominal fat, Rps9 was used as internal control gene in the stromal vascular fraction of mice abdominal fat and Actb was used as internal control gene in liver samples. Table 1. List of primers used for quantitative real-time PCR analysis.
All procedures were conducted in compliance with protocols approved by the Animal Care Committee of the University of Crete, School of Medicine (Facility number EL91-BIOexp-06), in conjunction with the Veterinary Department of the Region of Crete, Heraklion, Crete, Greece. C57BL/6 adult male mice were maintained in a 12 h day/night cycle and 21-23 °C conditions. Mice were provided with water and either normal fat diet, or high fat diet (60% energy from fat) ad libitum. All mice were weighed every 48 h.
Neorogioldiol was first dissolved in 90% carbowaxTM 400, 10% (v/v) absolute ethanol solution and then diluted 1:10 in water for injection. A dose of 0.25 mg neorogioldiol in a total volume of 200 µl was administered intraperitoneally every 48 h in mice in high fat + neorogioldiol group starting from day 1. 4-5 mice were used per group and each experiment was performed twice.
Abdominal fat lobes were weighed, washed in PBS, minced and dissolved with collagenase. They were incubated in 1.5mg/ml collagenase in 1% PBS-BSA, for 30 min at 37 °C. Next, homogenate was centrifuged at 800 rpm for 5 min at room temperature. The upper fatty phase, which contains the adipocytes, was collected and resuspended in TRI Reagent® and RNA isolation was carried out according to the manufacturer's instructions. The cell pellet, which is the stromal vascular fraction, was washed once with PBS and resuspended in TRI Reagent® for RNA isolation.

The subject of a further experiment is 3T3-L1 adipocytes. Briefly: Oil red o staining of intracellular lipid accumulation. In kind it is cell-based, Mouse. As for the experimental part: Mouse 3T3-L1 preadipocytes were maintained in proliferation medium containing DMEM supplemented with 10% (v/v) heat inactivated NBCS and 1% (v/v) penicillin-streptomycin at 37 °C with 5% CO2, humidified atmosphere. Cells were seeded in T-75 flasks at a density of 25×10^4 cells/flask. Cultures never became completely confluent according to the manufacturer's instructions. They were passaged using trypsin-EDTA solution once they reached 70-80% confluency. For differentiation, 3T3-L1 cells were seeded and after 24 h (day 1), cell differentiation was induced by changing the medium to high glucose DMEM containing 10% (v/v) heat inactivated FBS, 1% penicillin-streptomycin, 10 µg/mL insulin, 0.25 µM Dexamethasone (GAP), 0.5 mM IBMX (=differentiation medium I). On day 3, the medium was changed to high glucose DMEM containing 10% FBS, 1% penicillin- streptomycin, and 10 µg/mL insulin (=differentiation medium II). Thereafter, medium was changed every other day switching between differentiation medium I and differentiation medium II until day 12 or 23, when adipocytes were harvested. Control group preadipocytes were seeded at a higher density and harvested after two days. Test compounds were administered either at the initiation of differentiation, or after 15 days of differentiation and with every medium change. To determine the effect on preadipocyte differentiation, cells were seeded and after 24 h they were treated with neorogioldiol. Neorogioldiol was maintained in the culture medium throughout cell differentiation period. To determine the effect of neorogioldiol on mature adipocytes, cells were seeded and induced to differentiate for 14 days, then on day 15 neorogioldiol was added to the differentiation medium for 24 h before cells were harvested. Each compound used was diluted in a 90% carbowax™ 400, 10% (v/v) absolute ethanol solution serving as a control solvent. The final concentration in culture was 0.09% (v/v) carbowax and 0.01% (v/v) ethanol. […]
Oil red o staining was applied to measure lipid accumulation intracellularly. Briefly, after 12 or 23 days of differentiation, the cell culture medium was removed and the 3T3-L1 adipocytes were fixed in 3.7% formaldehyde for 60 min at room temperature. Next, a solution of 0.21% oil red o was filtered using a 0.45 µm filter followed by incubation of the fixed cells for 45 min at room temperature. Excess dye was removed and cells were washed twice with PBS. Fresh PBS was added and the lipid droplets within the differentiated 3T3-L1 cells were visualized and photographed by microscopy. For quantitative analysis, oil red o staining was eluted with 100% isopropanol and the absorbance was measured at 510 nm using the Infinite® 200 PRO microplate plate reader (Tecan, Zurich, Switzerland).

For the next experiment, the system named is 3T3-L1 preadipocytes. The experiment in a line: Seahorse XF cell metabolism analysis (extracellular acidification rate). In kind it is cell-based, Mouse. The conditions noted are these: 62.5 µM for 24 h. The procedure: Seahorse XF Cell Energy Phenotype Test Kit and Seahorse XF Cell Mito Stress Test Kit were used to measure oxygen consumption rate and extracellular acidification rate on a Seahorse Bioscience XF Analyzer (Agilent Technologies). 3T3-L1 preadipocytes were seeded at 7.5×10^3 per well in growth medium in XF 96 Cell Culture Microplate (Agilent Technologies) two days prior to assay. 24 h prior to the assay, medium was changed and compound 1 was added at concentration of 62.5 µM. The day of the assay, cells were washed once and media was replaced with XF Base Medium (pH 7.4) supplemented with 1 mM pyruvate, 2 mM glutamine and 10 mM glucose. The plate was placed in a 37 °C incubator without CO2 for one hour prior to the assay. Cells were washed a second time right before starting the experiment. After measuring basal oxygen consumption rate and extracellular acidification rate, oligomycin (1.0 µM) and FCCP (1.0 µM) were introduced in real time to measure oxygen consumption rate and extracellular acidification rate under stressed condition. For the baseline extracellular acidification rate the third out of the three baseline measurements was used, while for the stressed condition, the highest measurement after the injections was used. The metabolic potential is calculated as the percentage of stressed extracellular acidification rate to baseline extracellular acidification rate.

Where [1] appears, read: high fat diet + neorogioldiol vs high fat diet mice.
Where [2] appears, read: high fat diet + neorogioldiol vs untreated obese mice.

neorogioldiol: in the experiment on 3T3-L1 cells, the Dlkl expression result was “did not affect the expression”, the Lep expression result is reported as “decreased the expression” and the Slc2a4 expression result was “decreased the expression”. Further, in the experiment with abdominal fat (setting [1]), the “Arg1 expression in the stromal vascular fraction” value is listed as “downregulated” and the “Il10 expression in the stromal vascular fraction” value is recorded as “downregulated”. For the same substance, in the experiment with abdominal fat (setting [2]), the “Adipoq expression in the fat fraction of abdominal fat” value was “lower levels” and the “Lep expression in the fat fraction of abdominal fat” value is on record as “lower levels”. The lipid accumulation entry in the experiment on 3T3-L1 adipocytes (differentiation in presence of serial concentrations 62.5, 31.25, 15.625, 7.81 and 3.9 µM, dose-dependent) is “reduced lipid accumulation”. For the same substance, the lipid accumulation entry with 3T3-L1 adipocytes (differentiation induced in the presence of compound, after 12 days, 1 at 62.5 µM, 2 at 25 µM) is “significantly reduced lipid accumulation”. Also, the lipid accumulation entry in the experiment on 3T3-L1 adipocytes (mature adipocytes: differentiated 15 days, then 62.5 µM for 8 more days) is given as “decreased lipid accumulation”. The “basal levels of extracellular acidification rate” value in the experiment with 3T3-L1 preadipocytes is reported as “increasing basal levels”. Also, the “metabolic potential (stressed to baseline extracellular acidification rate)” value in the experiment with 3T3-L1 preadipocytes (after oligomycin and FCCP) was “decreased the metabolic potential”.
